Measured values from patent US20160176914A1, “GLYCOSYLATED CARDIOTONIC STEROIDS” (priority 2013, published 2016).
Where two headings read alike, the source gives them in different places.

Assays:
NCI-H460 cells = assay: cells; format: cell-based, Human; conditions: for IC50: Homo sapiens; for cytotoxicity / activity for H460 cells, in words: comparison
Procedure: Human non-small cell lung cancer cells (NCI-H460) were purchased from the American Type Culture Collection (Manassas, Va.). NCI-H460 cells were cultured in RPMI 1640 medium supplemented with 10% bovine fetal serum (FBS), 2 mM L-glutamine and 100-units/ml penicillin/streptomycin. All experiments with NCI-H460 cells were performed in medium enriched with 1% FBS serum, 2 mM L-glutamine and 100-units/ml penicillin/streptomycin. 1% FBS was used due to existing concerns about digitoxin binding to serum proteins.
Cells were seeded overnight in 96 well plates at a concentration of 1×10^4 cells/well, and then treated for 48 h with a log10 scale dilution series of the glycosylated CS compounds (e.g., digitoxin or D6-MA) dissolved in sterile filtered DMSO. Subsequently, 10 μl of 5 mg/ml MTT reagent was added to each well and then incubated for 4 h at 37° C. Isopropanol acidified with 0.04 N HCl was used to dissolve converted dye. Absorbance at 570 nm was measured using an Automated Microplate Reader ELx800 (BioTek, Winooski, Vt.). Each experiment was conducted 4 times with 4 replicate wells per concentration.
All results are presented as mean±standard deviation. For cell viability, ATPase activity and apoptosis assays, dose-response curves and concentrations that caused 50% effect (i.e. IC50) were calculated for the prepared compounds listed in Tables 1-3 in all the cell lines tested using non-linear regression analysis in GraphPad Prism 5.0 (San Diego, Calif.). Two-way analysis of variance (ANOVA) and unpaired two-tailed Student's t-test with α=0.05 were performed to compare the effect of compounds and administered dose on cell viability, apoptosis and quantified protein expression data. Post-hoc Tukey-Kramer HSD tests were conducted on significant ANOVA results. Results were considered significant when p≦0.05.

HCMV = assay: Anti-CMV activity assay, inhibition of HCMV replication in infected HFFs; format: cell-based, human Cytomegalovirus (HCMV); conditions: anti-HCMV activity in infected HFFs; read-out: EC50
Procedure: It has been observed that the infection of human foreskin fibroblasts (HFF) cells with HCMV causes an up regulation of the α3-isoform of the Na^+/K^+-Pump. Therefore the inhibition of HCMV replication by the compounds described herein was tested using procedure described by Cai, H. et al., in Med. Chem. Lett. 2014, 5, 395-399, which is incorporated by reference in its entirety. Generally, inhibition of Towne HCMV: pp28-luciferase activity was measured in cell lysates of HCMV-infected HFFs collected at 72 h post infection (hpi). Virus DNA yield in supernatants of HCMV-infected cells collected at 96 hpi was measured by real-time PCR. Plaque reduction assay performed at 8 days postinfection. Data represent mean values (±SD) of triplicate determinations from three independent experiments.
Inhibition of TB40 HCMV: HFFs were infected with HCMV-TB40 strain at MOI of 1 pfu/cell and treated with compounds listed in Tables 1-3 for 3 days.
The glycosylated cardiotonic steroid compounds were tested for their anti-cytomegalovirus (CMV) activity. Specifically, the compounds were tested for the ability to inhibit HCMV replication. For each compound, the anti-HCMV activity in infected HFFs was expressed as EC50, whereas cytotoxicity in noninfected HFFs was expressed as CC50. Selectivity index (SI), defined as CC50/EC50, was calculated for each compound.

α2β1 Na+/K+ ATPase = α2β1 Na+/K+ ATPase (Homo sapiens, UniProt P50993); assay: Na+/K+ ATPase pump binding, α2β1 isoform (radioactive displacement assay)
Procedure: (§1) α1/2/3-Na^+/K^+ ATPase pump binding data was assessed for compounds of Table 1.
(§2) Further, from the results, a strong correlation between cancer cell cytotoxicity and α1/3-Na^+/K^+ ATPase pump binding selectivity was observed (see: α-L-amiceto-mono-, di- and tri-saccharides; Scheme 1). In addition, it was observed that mono-saccharides have improved activity and α1/2/3-isoform selectivity. […] The Na^+/K^+ ATPase binding data also correlates with the cytotoxicity data, which can be seen in the binding data of compounds 1.5-1.7 to all three isomers (α1β1/α2β1/α3β1), which decreases proportionally the MTT data (Table 1).

α1β1 Na+/K+ ATPase = α1β1 Na+/K+ ATPase (Homo sapiens, UniProt P05023); assay: Na+/K+ ATPase pump binding, α1β1 isoform (radioactive displacement assay)
Procedure: as §1, §2

α3β1 Na+/K+ ATPase = α3β1 Na+/K+ ATPase (Homo sapiens, UniProt P13637); assay: Na+/K+ ATPase pump binding, α3β1 isoform (radioactive displacement assay)
Procedure: as §1, §2

[1] = NCI-H460, Table 5, H460 cells, compounds of Table 2, read-out: IC50
[2] = NCI-H460, Table 6, H460 cells, compounds of Table 3, read-out: IC50
[3] = NCI-H460, 48 h, read-out: Anticancer MTT IC50

Compound | IC50 (NCI-H460 cells; [1]) [nM] | cytotoxicity / activity for H460 cells, in words (NCI-H460 cells) | IC50 (NCI-H460 cells; [2]) [nM] | further results
CC1O[C@H](OC2C(O)[C@H](OC3C(O)[C@H](O[C@H]4CCC5(C)C(CC[C@@H]6C5CCC5(C)[C@@H](C7=CC(=O)OC7)CC[C@]65O)C4)OC(C)[C@@H]3O)OC(C)[C@@H]2O)C(O)C(O)[C@@H]1O (stereo in doubt) [Compound 2.9, digitoxigenin α-D-rhamnopyranosyl-(1 → 3)-α-L-rhamnopyranosyl-(1 → 3)-α-L-rhamnopyranoside] | 86 | – | – | –
CC1O[C@H](O[C@H]2C(C)O[C@@H](O[C@H]3CCC4(C)C(CC[C@@H]5C4CCC4(C)[C@@H](C6=CC(=O)OC6)CC[C@]54O)C3)C(O)C2O)C(O)C(O)[C@@H]1O (stereo partly drawn) [Compound 2.7, digitoxigenin α-D-rhamnopyranosyl-(1 → 4)-α-L-rhamnopyranoside] | 70 | much greater activity | – | –
CC1OC(O[C@H]2CCC3(C)C(CCC4C3CCC3(C)[C@@H](C5=CC(=O)OC5)CC[C@]43O)C2)C(O)C(OC2CC[C@@H](O)C(C)O2)[C@H]1O (stereo partly drawn) [Compound 2.5, [2,3-dihydro-4-hydroxy-α-L-Amip-(1→3)-2,4-dihydroxy-α-L-Rhap]-Dig] | 389 | – | – | –
C[C@@H]1O[C@@H](O[C@H]2CC[C@@]3(C)[C@H](CC[C@@H]4[C@@H]3C[C@@H](O)[C@]3(C)[C@@H](C5=CC(=O)OC5)CC[C@]43O)C2)CC[C@H]1O (stereo in doubt) [Compound 3.3, digoxigenin α-L-amecitopyranoside] | – | more active than the diastereomeric α-D-sugars | 54 | –
α-D-Mannose | – | – | – | EC50 (HCMV): 7.31 ± 0.12 nM
CC1OC(OC2C(C)OC(OC3C(C)OC(OC4CCC5(C)C(CCC6C5CCC5(C)C(C7=CC(=O)OC7)CCC65O)C4)C(O)C3O)C(O)C2O)C(O)C(O)C1O (stereo not shown) [Compound 1.4] | – | – | – | Kd (α2β1 Na+/K+ ATPase): 164 nM; IC50 (NCI-H460 cells; [3]): 1350 nM; Kd (α1β1 Na+/K+ ATPase): 393 nM; Kd (α3β1 Na+/K+ ATPase): 345 nM
CC1O[C@@H](O[C@H]2CCC3(C)C(CC[C@@H]4C3CCC3(C)[C@@H](C5=CC(=O)OC5)CC[C@]43O)C2)C(O)C(O)[C@H]1N (stereo in doubt) [Compound 2.1, digitoxigenin α-L-4-amino-rhamnopyranoside] | 5.1 | improved cytotoxicity | – | –
CC1O[C@@H](OC2C(O)[C@H](O[C@H]3CCC4(C)C(CC[C@@H]5C4CCC4(C)[C@@H](C6=CC(=O)OC6)CC[C@]54O)C3)OC(C)[C@@H]2O)C(O)C(O)[C@H]1O (stereo in doubt) [Compound 2.3, digitoxigenin α-L-rhamnopyranosyl-(1 → 3)-α-L-rhamnopyranoside] | 45.5 | does not significantly reduce activity | – | –
CC1OC(OC2CCC(OC3CCC4(C)C(CCC5C4CCC4(C)C(C6=CC(=O)OC6)CCC54O)C3)OC2C)CCC1O (stereo not shown) [Compound 1.6] | – | – | – | Kd (α2β1 Na+/K+ ATPase): 156 nM; IC50 (NCI-H460 cells; [3]): 510 nM; Kd (α1β1 Na+/K+ ATPase): 223 nM; Kd (α3β1 Na+/K+ ATPase): 186 nM
CC1O[C@@H](OC2C(O)[C@H](OC3C(O)[C@H](O[C@H]4CCC5(C)C(CC[C@@H]6C5CCC5(C)[C@@H](C7=CC(=O)OC7)CC[C@]65O)C4)OC(C)[C@@H]3O)OC(C)[C@@H]2O)C(O)C(O)[C@H]1O (stereo in doubt) [Compound 2.10, digitoxigenin α-L-rhamnopyranosyl-(1 → 3)-α-L-rhamnopyranosyl-(1 → 3)-α-L-rhamnopyranoside] | 50.6 | – | – | –
C[C@@H]1O[C@@H](O[C@H]2CC[C@@]3(C)[C@H](CC[C@@H]4[C@@H]3C[C@@H](OC(=O)C(C)(C)C)[C@]3(C)[C@@H](C5=CC(=O)OC5)CC[C@]43O)C2)CC[C@H]1O [Compound 3.5] | – | greatly reduced activity | ≥ 50000 | –
C[C@@H]1O[C@@H](O[C@H]2CC[C@@]3(C)[C@H](CC[C@@H]4[C@@H]3C[C@@H](OC(=O)C(C)(C)C)[C@]3(C)[C@@H](C5=CC(=O)OC5)CC[C@]43O)C2)[C@H](O)[C@H](O)[C@H]1O [Compound 3.10] | – | greatly reduced activity | ≥ 50000 | –
C[C@H]1O[C@H](O[C@H]2CC[C@@]3(C)[C@H](CC[C@@H]4[C@@H]3C[C@@H](O)[C@]3(C)[C@@H](C5=CC(=O)OC5)CC[C@]43O)C2)[C@@H](O)[C@@H](O)[C@@H]1O [Compound 3.2] | – | – | 486 | –
CC1O[C@@H](O[C@H]2CCC3(C)C(CC[C@@H]4C3CCC3(C)[C@@H](C5=CC(=O)OC5)CC[C@]43O)C2)CC[C@H]1N (stereo partly drawn) [Compound 2.2, digitoxigenin α-L-4-amino-amecitopyranoside] | 3.1 | improved cytotoxicity | – | –
C[C@H]1O[C@H](O[C@H]2CC[C@@]3(C)[C@H](CC[C@@H]4[C@@H]3C[C@@H](O)[C@]3(C)[C@@H](C5=CC(=O)OC5)CC[C@]43O)C2)CC[C@@H]1O [Compound 3.1] | – | – | 253 | –
CC1O[C@H](OC2C(O)[C@H](O[C@H]3CCC4(C)C(CC[C@@H]5C4CCC4(C)[C@@H](C6=CC(=O)OC6)CC[C@]54O)C3)OC(C)[C@@H]2O)C(O)C(O)[C@@H]1O (stereo in doubt) [Compound 2.4, digitoxigenin α-D-rhamnopyranosyl-(1 → 3)-α-L-rhamnopyranoside] | 332 | – | – | –
C[C@@H]1O[C@@H](O[C@H]2CC[C@@]3(C)[C@H](CC[C@@H]4[C@@H]3C[C@@H](O[Si](C)(C)C(C)(C)C)[C@]3(C)[C@@H](C5=CC(=O)OC5)CC[C@]43O)C2)[C@H](O)[C@H](O)[C@H]1O [Compound 3.11] | – | – | 2250 | –
CC(=O)O[C@@H]1C[C@H]2[C@@H](CC[C@@H]3C[C@@H](O[C@H]4CC[C@@H](O)[C@H](C)O4)CC[C@@]32C)[C@@]2(O)CC[C@H](C3=CC(=O)OC3)[C@@]12C [Compound 3.4] | – | – | 3440 | –
C[C@@H]1O[C@@H](O[C@H]2CC[C@@]3(C)[C@H](CC[C@@H]4[C@@H]3C[C@@H](O[Si](C)(C)C(C)(C)C)[C@]3(C)[C@@H](C5=CC(=O)OC5)CC[C@]43O)C2)CC[C@H]1O [Compound 3.6] | – | – | 29700 | –
CC(=O)O[C@@H]1C[C@H]2[C@@H](CC[C@@H]3C[C@@H](O[C@@H]4O[C@@H](C)[C@H](O)[C@@H](O)[C@H]4O)CC[C@@]32C)[C@@]2(O)CC[C@H](C3=CC(=O)OC3)[C@@]12C [Compound 3.8] | – | – | 5980 | –
C[C@@H]1O[C@@H](O[C@H]2CC[C@@]3(C)[C@H](CC[C@@H]4[C@@H]3C[C@@H](OC(=O)CCl)[C@]3(C)[C@@H](C5=CC(=O)OC5)CC[C@]43O)C2)[C@H](O)[C@H](O)[C@H]1O [Compound 3.9] | – | – | 105 | –
CC1OC(O[C@H]2CCC3(C)C(CCC4C3CCC3(C)[C@@H](C5=CC(=O)OC5)CC[C@]43O)C2)C(O)C(OC2CC[C@H](O)C(C)O2)[C@H]1O (stereo partly drawn) [Compound 2.6, [2,3-dihydro-4-hydroxy-α-D-Amip-(1→3)-2,4-dihydroxy-α-L-Rhap]-Dig] | 651 | – | – | –
C[C@@H]1O[C@@H](O[C@H]2CC[C@@]3(C)[C@H](CC[C@@H]4[C@@H]3C[C@@H](O)[C@]3(C)[C@@H](C5=CC(=O)OC5)CC[C@]43O)C2)[C@H](O)[C@H](O)[C@H]1O (stereo in doubt) [Compound 3.7, digoxigenin α-L-rhamnopyranoside] | – | more active than the diastereomeric α-D-sugars | 19 | –
